Assay results taken from patent US9302999B2, “Substituted triazoles as herbicides” (E. I. DU PONT DE NEMOURS AND COMPANY, priority 2012, dated 2016).

Key:
Format in all cases: in vivo
[1] = system: beggarticks (hairy beggarticks, Bidens pilosa); experiment: Test F pre-/postemergence: beggarticks
From the text: (§1) Seeds of plant species selected from corn (Zea mays), soybean (Glycine max), velvetleaf (Abutilon theophrasti), lambsquarters (Chenopodium album), poinsettia, wild (wild poinsettia, Euphorbia heterophylla), pigweed, palmer (palmer pigweed, Amaranthus palmeri), waterhemp (common waterhemp, Amaranthus rudis), surinam grass (Brachiaria decumbens), crabgrass, Brazil (Brazilian crabgrass, Digitaria horizontalis), panicum, fall (fall panicum Panicum dichotomiflorum), crabgrass, large (large crabgrass, Digitaria sanguinalis), foxtail, giant (giant foxtail, Setaria faberii), foxtail, green (green foxtail Setaria viridis), goosegrass (Eleusine indica), ragweed (common ragweed, Ambrosia elatior), barnyardgrass (Echinochloa crus-galli), sandbur (southern sandbur, Cenchrus echinatus), arrowleaf sida (Sida rhombifolia), ryegrass, Italian (Italian ryegrass, Lolium multiflorum), dayflower, VA (Virginia (VA) dayflower, Commelina virginica), field bindweed (Convolvulus arvensis), cocklebur (common cocklebur, Xanthium strumarium), morningglory (Ipomoea coccinea), nightshade (eastern black nightshade, Solanum ptycanthum), kochia (Kochia scoparia), nutsedge, yellow (yellow nutsedge, Cyperus esculentus), johnsongrass (Sorghum halepense), smartweed (ladysthumb smartweed, Polygonum persicaria), and beggarticks (hairy beggarticks, Bidens pilosa), were planted into a silt loam soil and treated preemergence with test chemicals formulated in a non-phytotoxic solvent mixture which included a surfactant. At the same time, plants selected from these crop and weed species and also pigweed (Amaranthus retroflexus), waterhemp_RES1 (ALS/Triazine resistant common waterhemp, Amaranthus rudis) and waterhemp_RES2 (ALS/HPPD resistant common waterhemp, Amaranthus rudis) were planted in pots containing a planting medium comprising spaghnum peat moss, vermiculite, wetting agent and starter nutrients treated with postemergence applications of some of the test chemicals formulated in the same manner. Plants ranged in height from 2 to 18 cm for postemergence treatments (1- to 4-leaf stage).
(§2) Treated plants and controls were maintained in a greenhouse for 14 to 21 days, after which time all species were compared to controls and visually evaluated. Plant response ratings, summarized in Table E, are based on a scale of 0 to 100 where 0 is no effect and 100 is complete control. A dash (-) response means no test result.

[2] = system: poinsettia, wild (wild poinsettia, Euphorbia heterophylla); experiment: Test F pre-/postemergence: poinsettia, wild
From the text: as §1, §2

[3] = system: barley (winter barley, Hordeum vulgare); experiment: Test C postemergence: barley
How it was run: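 Visual ratings of 0 (no effect) to 100 (complete control) were made against controls 13-15 days after a postemergence spray, with plants kept in a greenhouse. Plants were 2-18 cm tall (1- to 4-leaf stage) in Redi-Earth peat/vermiculite medium at treatment.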

[4] = system: galium (catchweed bedstraw, Galium aparine); experiment: Test D pre-/postemergence: galium
How it was run: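 Visual ratings from 0 (no effect) to 100 (complete control) were made 14–21 days after treatment, relative to controls. Applications were preemergence to seeds in silt loam, or postemergence to 2–18 cm (1–4 leaf) plants in peat-based medium. Compounds were formulated in a surfactant-containing non-phytotoxic solvent.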

[5] = Preemergence, 16 g ai/ha, scale 0 to 100, 0 no effect, 100 complete control
[6] = Preemergence, 31 g ai/ha, scale 0 to 100, 0 no effect, 100 complete control
[7] = Preemergence, 62 g ai/ha, scale 0 to 100
[8] = Preemergence, 125 g ai/ha, scale 0 to 100
[9] = Preemergence, 250 g ai/ha, scale 0 to 100
[10] = 31 g ai/ha, scale 0 to 100 (0 no effect, 100 complete control)
[11] = 62 g ai/ha, scale 0 to 100 (0 no effect, 100 complete control)
[12] = 125 g ai/ha, scale 0 to 100, 0 no effect, 100 complete control
[13] = Postemergence, 8 g ai/ha, scale 0 to 100
[14] = Postemergence, 16 g ai/ha, scale 0 to 100
[15] = Postemergence, 31 g ai/ha, scale 0 to 100
[16] = Postemergence, 62 g ai/ha, scale 0 to 100
[17] = Postemergence, 125 g ai/ha, scale 0 to 100
[18] = Preemergence, 8 g ai/ha, scale 0 to 100, 0 no effect, 100 complete control
[19] = Postemergence, 31 g ai/ha, scale 0 to 100 (0 no effect, 100 complete control)
[20] = Postemergence, 62 g ai/ha, scale 0 to 100 (0 no effect, 100 complete control)
[21] = Postemergence, 125 g ai/ha, scale 0 to 100, 0 no effect, 100 complete control
[22] = Postemergence, 250 g ai/ha, scale 0 to 100 (0 no effect, 100 complete control)

Structure (SMILES): Cc1nn(-c2ccc(F)cc2F)nc1Oc1ccnc(C(F)(F)F)c1 [Compound 146]
- Plant response rating, Beggarticks [1, 5]: 0
- Plant response rating, Beggarticks [1, 6]: 0
- Plant response rating, Beggarticks [1, 7]: 0
- Plant response rating, Beggarticks [1, 8]: 0
- Plant response rating, Beggarticks [1, 9]: 0
- Plant response rating, Poinsettia, Wild [2, 5]: 20
- Plant response rating, Poinsettia, Wild [2, 6]: 20
- Plant response rating, Poinsettia, Wild [2, 8]: 40
- Plant response rating, Poinsettia, Wild [2, 9]: 40

Structure (SMILES): COc1nn(-c2cccc(F)c2)nc1Cc1ccnc(C(F)(F)F)c1 [Compound 139]
- Plant response rating, Beggarticks [1, 5]: 0
- Plant response rating, Beggarticks [1, 6]: 0
- Plant response rating, Beggarticks [1, 7]: 0
- Plant response rating, Beggarticks [1, 8]: 0
- Plant response rating, Beggarticks [1, 9]: 0
- Plant response rating, Barley [3, 10]: 5
- Plant response rating, Barley [3, 11]: 10
- Plant response rating, Barley [3, 12]: 35
- Plant response rating, Barley ([3]; 250 g ai/ha, scale 0 to 100): 40
- Plant response rating, Poinsettia, Wild [2, 5]: 0
- Plant response rating, Poinsettia, Wild [2, 6]: 20
- Plant response rating, Poinsettia, Wild [2, 8]: 75
- Plant response rating, Poinsettia, Wild [2, 9]: 80

Structure (SMILES): Cc1nn(-c2ccnc(Cl)c2)nc1Cc1ccnc(C(F)(F)F)c1 [Compound 141]
- Plant response rating, Beggarticks [1, 13]: 40
- Plant response rating, Beggarticks [1, 14]: 40
- Plant response rating, Beggarticks [1, 15]: 50
- Plant response rating, Beggarticks [1, 16]: 60
- Plant response rating, Beggarticks [1, 17]: 75
- Plant response rating, Barley [3, 10]: 5
- Plant response rating, Barley [3, 11]: 10
- Plant response rating, Barley [3, 12]: 15
- Plant response rating, Barley ([3]; 250 g ai/ha, scale 0 to 100): 30
- Plant response rating, Poinsettia, Wild [2, 13]: 60
- Plant response rating, Poinsettia, Wild [2, 14]: 80
- Plant response rating, Poinsettia, Wild [2, 15]: 85
- Plant response rating, Poinsettia, Wild [2, 16]: 95
- Plant response rating, Poinsettia, Wild [2, 17]: 98

Structure (SMILES): CCOc1nn(-c2ccc(F)cc2)nc1Cc1ccnc(C(F)(F)F)c1 [Compound 196, 4-[[5-ethoxy-2-(4-fluorophenyl)-2H-1,2,3-triazol-4-yl]methyl]-2-(trifluoromethyl)pyridine]
- Plant response rating, Beggarticks [1, 13]: 50
- Plant response rating, Beggarticks [1, 14]: 60
- Plant response rating, Beggarticks [1, 15]: 60
- Plant response rating, Beggarticks [1, 16]: 60
- Plant response rating, Beggarticks [1, 17]: 70
- Plant response rating, Beggarticks [1, 18]: 0
- Plant response rating, Beggarticks [1, 5]: 50
- Plant response rating, Beggarticks [1, 6]: 50
- Plant response rating, Beggarticks [1, 7]: 50
- Plant response rating, Beggarticks [1, 8]: 65
- Plant response rating: Galium [4, 19]: 85
- Plant response rating: Galium [4, 20]: 70
- Plant response rating: Galium [4, 21]: 90
- Plant response rating, Galium [4, 14]: 70
- Plant response rating, Barley [3, 10]: 30
- Plant response rating, Barley [3, 11]: 40
- Plant response rating, Barley [3, 12]: 45
- Plant response rating, Barley ([3]; 250 g ai/ha, scale 0 to 100): 50
- Plant response rating, Poinsettia, Wild [2, 13]: 75
- Plant response rating, Poinsettia, Wild [2, 14]: 85
- Plant response rating, Poinsettia, Wild [2, 15]: 95
- Plant response rating, Poinsettia, Wild [2, 16]: 95
- Plant response rating, Poinsettia, Wild [2, 17]: 95
- Plant response rating, Poinsettia, Wild [2, 18]: 0
- Plant response rating, Poinsettia, Wild [2, 5]: 50
- Plant response rating, Poinsettia, Wild [2, 6]: 50
- Plant response rating, Poinsettia, Wild [2, 8]: 75

Structure (SMILES): Cc1nn(-c2ccc(C(F)(F)F)c(F)c2)nc1Oc1ccnc(C(F)(F)F)c1 [Compound 148]
- Plant response rating, Beggarticks [1, 5]: 0
- Plant response rating, Beggarticks [1, 6]: 0
- Plant response rating, Beggarticks [1, 7]: 0
- Plant response rating, Beggarticks [1, 8]: 0
- Plant response rating, Beggarticks [1, 9]: 0
- Plant response rating: Galium [4, 19]: 70
- Plant response rating: Galium [4, 20]: 70
- Plant response rating: Galium [4, 21]: 75
- Plant response rating, Galium [4, 14]: 60
- Plant response rating, Barley [3, 10]: 35
- Plant response rating, Barley [3, 11]: 35
- Plant response rating, Barley [3, 12]: 40
- Plant response rating, Barley ([3]; 250 g ai/ha, scale 0 to 100): 45
- Plant response rating, Poinsettia, Wild [2, 5]: 0
- Plant response rating, Poinsettia, Wild [2, 6]: 0
- Plant response rating, Poinsettia, Wild [2, 8]: 20
- Plant response rating, Poinsettia, Wild [2, 9]: 100

Structure (SMILES): COc1nn(-c2ccc(C(F)(F)F)cc2)nc1Cc1ccnc(C(F)(F)F)c1 [Compound 15, 4-[[5-methoxy-2-[4-(trifluoromethyl)phenyl]-2H-1,2,3-triazol-4-yl]methyl]-2-(trifluoromethyl)pyridine]
- Plant response rating: Galium [4, 19]: 55
- Plant response rating: Galium [4, 20]: 70
- Plant response rating: Galium [4, 21]: 100
- Plant response rating: Galium [4, 22]: 100
- Plant response rating, Galium [4, 14]: 50
- Plant response rating, Galium [4, 7]: 30
- Plant response rating, Galium [4, 8]: 100
- Plant response rating, Galium [4, 9]: 100
- Plant response rating, Barley ([3]; 16 g ai/ha, scale 0 to 100, 0 no effect, 100 complete control): 30
- Plant response rating, Barley [3, 10]: 35
- Plant response rating, Barley [3, 11]: 35
- Plant response rating, Barley [3, 12]: 50

Structure (SMILES): Cc1nn(-c2ccc(C(F)(F)F)cc2)nc1Oc1ccnc(C(F)(F)F)c1 [Compound 120]
- Plant response rating: Galium [4, 19]: 60
- Plant response rating: Galium [4, 20]: 70
- Plant response rating: Galium [4, 21]: 98
- Plant response rating: Galium [4, 22]: 100
- Plant response rating, Galium [4, 14]: 50
- Plant response rating, Galium [4, 5]: 0
- Plant response rating, Galium [4, 6]: 15
- Plant response rating, Galium [4, 7]: 65
- Plant response rating, Galium [4, 8]: 100
- Plant response rating, Galium [4, 9]: 100
- Plant response rating, Barley [3, 10]: 20
- Plant response rating, Barley [3, 11]: 30
- Plant response rating, Barley [3, 12]: 40
- Plant response rating, Barley ([3]; 250 g ai/ha, scale 0 to 100): 55
